Experimental data: paper PMC10030653, “ClpC2 protects mycobacteria against a natural antibiotic targeting ClpC1-dependent protein degradation” (Communications Biology, 2023)
Numbered stars: 1 amine (or outer) side, 2 acyl side, 3 side chain; on linkers, the order of the positions; unused ones are H or OH. Square brackets hold non-standard residues; d marks the D form. Peptide text beside a SMILES is read from it. X1 = CC(C)([C@@H]1CO1)n1cc([C@@H](O)[C@H](N[*:1])C(=O)[*:2])c2ccccc21; Ala(3R-Me,3-isobutenyl) = CC(C)=C[C@@H](C)[C@H](N)C(=O)O; NMeLeu(5-OH,4R) = CN[C@@H](C[C@@H](C)CO)C(=O)O; Phe(βR-OMe) = CO[C@H](c1ccccc1)[C@H](N)C(=O)O; NMeL = CN[C@@H](CC(C)C)C(=O)O

Tests used:
ClpC1 [1] = settings: Msm, 150 nM CymA, 0-8 h
ClpC2 [2] = format: cell-based, Mycobacterium smegmatis; settings: Msm WT, OD600 0.5, 150 nM CymA, 37 °C, from 1 h to 8 h after addition
Mycobacterium smegmatis = experiment: Growth curves of Msm strains with CymA
Procedure: Mycobacterium smegmatis MC^2155 SMR5 and derived strains were routinely grown at 37 °C with shaking in DIFCO™ Middlebrook7H9 broth (BD) supplemented with 0.05% Tween 80 and 0.2% glycerol. The antibiotics apramycin (50 µg/ml) or hygromycin B (100 µg/ml) were added as needed. […] The DMSO concentration of cultures was maintained at less than 1% in all instances.
Msm cultures were diluted to an OD600 of 0.005 in 7H9. […] The cultures were grown at 37 °C with shaking (200 rpm) and the culture growth monitored by periodically measuring the OD600.

[3] = molecular target: Mtb ClpC1 NTD (ClpC1^1-145) (Mycobacterium tuberculosis, UniProt P9WPC9); experiment: biochemical; format: binding
[4] = test system: ClpC2 / clpC2 operator DNA; experiment: EMSA, ClpC2 binding to clpC2 operator DNA; set-up: species or system Mycobacterium tuberculosis; settings: for fraction of DNA bound to ClpC2: 1 μM CymA
mycobacteria = settings: cited from earlier work
[5] = test system: ClpC1 hexamer/ClpP1P2 tetradecamer (ClpC1P); experiment: FITC-casein degradation assay; format: biochemical, Mycobacterium tuberculosis; settings: 2 μM CymA
Procedure: Degradation of FITC-casein (Sigma) was carried out in 50 mM HEPES-KOH pH 7.1, 150 mM KCl, 20 mM MgCl2, 10% glycerol by 0.5 μM ClpC1 hexamer and 0.8 μM ClpP1P2 tetradecamer with the addition of 0.4 mM activator peptide benzyloxycarbonyl-L-leucyl-L-leucinal (PeptaNova), 0.5 mM DTT, 1 U/ml creatine phosphokinase, 20 mM phosphocreatine, 10 mM ATP at 37 °C. […] Whereas the effect of an excess of ClpC2 on the degradation of FITC-casein (10 μM) was carried out in the presence of 100 μM ClpC2. Fluorescence intensity increases upon degradation of FITC-casein as a consequence of fluorophore dequenching was monitored using the BioTek Synergy 2 Plate Reader with a 485/20 nm band-pass […] filter. Rates of degradation were determined from the initial slopes and used to determine the CymA-induced stimulation of ClpC1P activity at the different concentrations of ClpC2.

ClpC1 NTD = settings: cited from earlier work
ClpC2 [6] = format: cell-based, Mycobacterium smegmatis; settings: Msm, 150 nM CymA, around 8 h after addition
ClpC1 [7] = settings: cited from earlier work
clpC2 mRNA = experiment: RT-qPCR of clpC2 expression after CymA; format: cell-based, Mycobacterium smegmatis; settings: Msm, 150 nM CymA; for Cq value ClpC2 / Cq value RpoB (reference gene): 1 h
Escherichia coli = settings: cited from earlier work
Excerpt: (§1) CymA is a cyclic heptapeptide that is synthesised by the marine bacterium Streptomyces sp. CNB-982[33]–[35].

Staphylococcus aureus = settings: cited from earlier work
Excerpt: as §1

Mtb ClpC1 NTD (ClpC1^1-145), sequence (P9WPC9 1-145): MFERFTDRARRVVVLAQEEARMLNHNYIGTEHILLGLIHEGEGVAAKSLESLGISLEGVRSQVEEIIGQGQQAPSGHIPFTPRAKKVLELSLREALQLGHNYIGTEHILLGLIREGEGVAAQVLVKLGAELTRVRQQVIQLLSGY

With `CO[C@H](c1ccccc1)[C@@H]1NC(=O)[C@H](C)NC(=O)[C@H](C[C@@H](C)CO)N(C)C(=O)[C@H]([C@H](O)c2cn(C(C)(C)[C@@H]3CO3)c3ccccc23)NC(=O)[C@H]([C@H](C)C=C(C)C)NC(=O)[C@H](CC(C)C)N(C)C(=O)[C@H](C(C)C)NC1=O` [CymA, cyclomarin A] (cyclo(A[Phe(βR-OMe)]V[NMeL][Ala(3R-Me,3-isobutenyl)][X1][NMeLeu(5-OH,4R)])) the “ClpC1 level after CymA” value (ClpC1 [1]) was “remained fairly constant”, the “ClpC2 Western blot signal” value (ClpC2 [2]) was “increases by several orders of magnitude” and the “growth of ΔclpC2 with CymA” value (Mycobacterium smegmatis; Msm ΔclpC2, sub-MIC50 CymA (150 nM), 7H9, 37 °C, vs parent strain) was “diminished growth compared to the parent strain”. The “growth of comclpC2 F99A with CymA” value (Mycobacterium smegmatis; Msm ΔclpC2 complemented with clpC2 F99A, 150 nM CymA, 7H9, 37 °C) was “attenuated growth upon exposure to CymA”, the “growth of comclpC2 R188A/R192A with CymA” value (Mycobacterium smegmatis; Msm ΔclpC2 complemented with clpC2 R188A/R192A, in the presence of CymA) was “lack of growth impairment” and the “growth of comclpC2 WT with CymA” value (Mycobacterium smegmatis; Msm ΔclpC2 complemented with clpC2 WT, 150 nM CymA, 7H9, 37 °C) was “the WT phenotype was restored”. The Kd [3] was 2.3 nM, the “fraction of DNA bound to ClpC2” value ([4]; 1 nM ClpC2, replicate 1) was 0 and the “fraction of DNA bound to ClpC2” value ([4]; 1 nM ClpC2, replicate 2) was 0.02788. For the same compound, the “fraction of DNA bound to ClpC2” value ([4]; 1 nM ClpC2, replicate 3) was 0.04348, the “fraction of DNA bound to ClpC2” value ([4]; 2 nM ClpC2, replicate 1) was 0 and the “fraction of DNA bound to ClpC2” value ([4]; 2 nM ClpC2, replicate 2) was 0.03704. For the same compound, the “fraction of DNA bound to ClpC2” value ([4]; 2 nM ClpC2, replicate 3) was 0.05455, the “fraction of DNA bound to ClpC2” value ([4]; 5 nM ClpC2, replicate 1) was 0.09091 and the “fraction of DNA bound to ClpC2” value ([4]; 5 nM ClpC2, replicate 2) was 0.08. The “fraction of DNA bound to ClpC2” value ([4]; 5 nM ClpC2, replicate 3) was 0.06873, the “fraction of DNA bound to ClpC2” value ([4]; 10 nM ClpC2, replicate 1) was 0.1629 and the “fraction of DNA bound to ClpC2” value ([4]; 10 nM ClpC2, replicate 2) was 0.1615. For the same compound, the “fraction of DNA bound to ClpC2” value ([4]; 10 nM ClpC2, replicate 3) was 0.1694, the “fraction of DNA bound to ClpC2” value ([4]; 15 nM ClpC2, replicate 1) was 0.2974 and the “fraction of DNA bound to ClpC2” value ([4]; 15 nM ClpC2, replicate 2) was 0.2686. For the same compound, the “fraction of DNA bound to ClpC2” value ([4]; 15 nM ClpC2, replicate 3) was 0.2612, the “fraction of DNA bound to ClpC2” value ([4]; 25 nM ClpC2, replicate 1) was 0.5671 and the “fraction of DNA bound to ClpC2” value ([4]; 25 nM ClpC2, replicate 2) was 0.4781. The “fraction of DNA bound to ClpC2” value ([4]; 25 nM ClpC2, replicate 3) was 0.3902, the “fraction of DNA bound to ClpC2” value ([4]; 50 nM ClpC2, replicate 1) was 0.7982 and the “fraction of DNA bound to ClpC2” value ([4]; 50 nM ClpC2, replicate 2) was 0.7344. For the same compound, the “fraction of DNA bound to ClpC2” value ([4]; 50 nM ClpC2, replicate 3) was 0.731, the “effect of CymA on ClpC2-operator DNA binding” value ([4]; EMSA, 1 µM CymA, room temperature, 20 min, pH 7.5) was “noticeable inhibitory effect on the interaction between ClpC2 and its operator site” and the activity against mycobacteria (mycobacteria) was “effective against mycobacteria”. For the same compound, the FITC-casein degradation rate ([5]; 0 μM ClpC2, 37 °C, replicate 1) was 8.073 min⁻¹, the FITC-casein degradation rate ([5]; 0 μM ClpC2, 37 °C, replicate 2) was 7.688 min⁻¹ and the FITC-casein degradation rate ([5]; 0 μM ClpC2, 37 °C, replicate 3) was 7.795 min⁻¹. For the same compound, the FITC-casein degradation rate ([5]; 0.2 μM ClpC2, 37 °C, replicate 1) was 7.586 min⁻¹, the FITC-casein degradation rate ([5]; 0.2 μM ClpC2, 37 °C, replicate 2) was 7.529 min⁻¹ and the FITC-casein degradation rate ([5]; 0.2 μM ClpC2, 37 °C, replicate 3) was 6.77 min⁻¹. The FITC-casein degradation rate ([5]; 0.5 μM ClpC2, 37 °C, replicate 1) was 6.271 min⁻¹, the FITC-casein degradation rate ([5]; 0.5 μM ClpC2, 37 °C, replicate 2) was 6.851 min⁻¹ and the FITC-casein degradation rate ([5]; 0.5 μM ClpC2, 37 °C, replicate 3) was 6.213 min⁻¹. For the same compound, the FITC-casein degradation rate ([5]; 1 μM ClpC2, 37 °C, replicate 1) was 6.248 min⁻¹, the FITC-casein degradation rate ([5]; 1 μM ClpC2, 37 °C, replicate 2) was 6.426 min⁻¹ and the FITC-casein degradation rate ([5]; 1 μM ClpC2, 37 °C, replicate 3) was 5.933 min⁻¹. For the same compound, the FITC-casein degradation rate ([5]; 2 μM ClpC2, 37 °C, replicate 1) was 4.9721 min⁻¹, the FITC-casein degradation rate ([5]; 2 μM ClpC2, 37 °C, replicate 2) was 4.555 min⁻¹ and the FITC-casein degradation rate ([5]; 2 μM ClpC2, 37 °C, replicate 3) was 5.043 min⁻¹. For the same compound, the FITC-casein degradation rate ([5]; 4 μM ClpC2, 37 °C, replicate 1) was 4.194 min⁻¹, the FITC-casein degradation rate ([5]; 4 μM ClpC2, 37 °C, replicate 2) was 4.045 min⁻¹ and the FITC-casein degradation rate ([5]; 4 μM ClpC2, 37 °C, replicate 3) was 3.662 min⁻¹. For the same compound, the FITC-casein degradation rate ([5]; 8 μM ClpC2, 37 °C, replicate 1) was 3.41 min⁻¹, the FITC-casein degradation rate ([5]; 8 μM ClpC2, 37 °C, replicate 2) was 3.29 min⁻¹ and the FITC-casein degradation rate ([5]; 8 μM ClpC2, 37 °C, replicate 3) was 3.596 min⁻¹. The FITC-casein degradation rate ([5]; 12 μM ClpC2, 37 °C, replicate 1) was 3.454 min⁻¹, the FITC-casein degradation rate ([5]; 12 μM ClpC2, 37 °C, replicate 2) was 2.89 min⁻¹ and the FITC-casein degradation rate ([5]; 12 μM ClpC2, 37 °C, replicate 3) was 2.828 min⁻¹. It also gave an FITC-casein degradation rate ([5]; 18 μM ClpC2, 37 °C, replicate 1) of 3.091 min⁻¹, an FITC-casein degradation rate ([5]; 18 μM ClpC2, 37 °C, replicate 2) of 2.23 min⁻¹ and an FITC-casein degradation rate ([5]; 18 μM ClpC2, 37 °C, replicate 3) of 2.386 min⁻¹. For the same compound, the target binding domain (ClpC1 NTD) was “specifically target ClpC1 NTD”, the “ClpC2 level in excess of ClpC1” value (ClpC2 [6]) was 84 fold and the “effect on ClpC1 ATPase and proteolytic activity” value (ClpC1 [7]) was “enhance the ATPase and proteolytic activity as well as reduce substrate specificity of ClpC1”. For the same compound, the “Cq value ClpC2” value (clpC2 mRNA; replicate 1) was 21.9726, the “Cq value RpoB (reference gene)” value (clpC2 mRNA; replicate 1) was 23.9629 and the “Cq value ClpC2” value (clpC2 mRNA; replicate 2) was 21.7648. The “Cq value RpoB (reference gene)” value (clpC2 mRNA; replicate 2) was 24.1812, the “Cq value ClpC2” value (clpC2 mRNA; replicate 3) was 20.9483 and the “Cq value RpoB (reference gene)” value (clpC2 mRNA; replicate 3) was 23.5984. For the same compound, the “increase in clpC2 mRNA” value (clpC2 mRNA; one hour, normalised to rpoB, biological n = 3, P = 0.0015 (two-tailed unpaired t test)) was 263 fold, the “activity against Escherichia coli” value (Escherichia coli) was “little activity” and the “activity against Staphylococcus aureus” value (Staphylococcus aureus) was “little activity”.
